Measurements reported in patent publication US20060003950A1, “Method of treating prostatic diseases using a combination of vitamin D analogues and other agents” (priority 2004, published 2006).

Columns and labels:
vitamin D receptor (VDR) = target: T1, vitamin D receptor (VDR) (Homo sapiens, UniProt P11473); assay: Vitamin D-inducible growth hormone reporter production in transfected COS-1 cells
T1 sequence (P11473 1-427): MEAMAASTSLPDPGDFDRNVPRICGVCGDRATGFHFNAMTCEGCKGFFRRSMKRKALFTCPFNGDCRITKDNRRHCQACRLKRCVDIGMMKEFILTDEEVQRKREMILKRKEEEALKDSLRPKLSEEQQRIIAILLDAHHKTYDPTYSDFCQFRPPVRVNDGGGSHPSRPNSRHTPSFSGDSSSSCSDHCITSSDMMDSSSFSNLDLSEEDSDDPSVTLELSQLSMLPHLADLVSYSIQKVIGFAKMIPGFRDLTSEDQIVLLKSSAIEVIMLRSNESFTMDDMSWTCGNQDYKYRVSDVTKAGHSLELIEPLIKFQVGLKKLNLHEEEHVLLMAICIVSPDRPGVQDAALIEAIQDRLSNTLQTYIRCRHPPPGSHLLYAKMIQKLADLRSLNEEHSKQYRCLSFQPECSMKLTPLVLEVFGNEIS
Protocol: Cells in culture were co-transfected into Green monkey kidney, COS-1 cells with these two plasmids. One plasmid contained the gene for Growth Hormone (GH) under the control of the vitamin D responsive element (VDRE) and the other plasmid contained the structural gene for the vitamin D receptor (VDR). These transfected cultures were incubated with 1α,24-(OH)2D2 or 1α,25-(OH)2D3, and the production of growth hormone was measured.

PC-3 = assay: Inhibition of prostate cell proliferation (DNA amount), PC-3; format: cell-based, human; settings: PC-3, 10^−11 M to 10^−7 M, 6-7 days
Protocol: (§1) The cell lines, LNCaP and PC-3, which are derived from human prostate adenocarcinoma, are seeded in six-well tissue culture plates at a density of about 50,000 cells/plate. After the cells have attached and stabilized, about 2-3 days, the medium is replenished with medium containing vehicle or the active vitamin D analogue 1α,24-(OH)2D2, at concentrations from 10^−11 M to 10^−7 M. Medium containing test analogue or vehicle is replaced every three days. After 6-7 days, the medium is removed, the cells are rinsed, precipitated with cold 5% trichloroacetic acid, and washed with cold ethanol. The cells are solubilized with 0.2 N sodium hydroxide, and the amount of DNA determined by standard procedures.

[1] = test system: Patients with advanced androgen-independent prostate cancer; assay: Open-labeled clinical study of oral 1α,24-(OH)2D2; format: in vivo; settings: daily oral, first phase
Description: On admission to the study, patients begin a course of therapy with oral 1α,24-(OH)2D2 lasting 26 weeks, while discontinuing any previous use of calcium supplements, vitamin D supplements, and vitamin D hormone replacement therapies. During treatment, the patients are monitored at regular intervals for: (1) hypercalcemia, hyperphosphatemia, hypercalciuria, hyperphosphaturia and other toxicity; (2) evidence of changes in the progression of metastatic disease; and (3) compliance with the prescribed test drug dosage.
The study is conducted in two phases. During the first phase, the maximal tolerated dosage (MTD) of daily oral 1α,24-(OH)2D2 is determined by administering progressively higher dosages to successive groups of patients. All doses are administered in the morning before breakfast. […] Subsequent groups of patients are treated with 50.0, 75.0 and 100.0 μg/day.
During the second phase, patients are treated with 1α,24-(OH)2D2 for 24 months at 0.5 and 1.0 times the MTD.

LNCaP [2] = assay: Inhibition of prostate cell proliferation (DNA amount), LNCaP; format: cell-based, human; settings: 10^−11 M to 10^−7 M, 6-7 days
Protocol: as §1

prostate VDR = target: T2, prostate VDR (Homo sapiens, UniProt P11473); assay: VDR binding in soluble extract of prostate-derived cell lines, competition with 3H-1α,25-(OH)2D3; settings: 0.01-100 nM against 1 nM 3H-1α,25-(OH)2D3, 16-20 hr at 4° C.
T2 construct: endogenous in cells
T2 sequence (P11473 1-427): T1 sequence (P11473 1-427)
Protocol: Prostate-derived cell lines are cultured to near confluence, washed and harvested by scraping. Cells are washed by centrifugation, and the cell pellet resuspended in a buffered salt solution containing protease inhibitors. The cells are disrupted by sonication while cooling on ice. The supernatant obtained from centrifuging the disrupted cells at 207,000×g for 35 min at 4° C. is assayed for binding. […] Bound and free hormones are separated with hydroxylapatite using standard procedures. Specific binding is calculated by subtracting nonspecific binding obtained in the presence of a 250-fold excess of nonradioactive 1α,25-(OH)2D3 from the total binding measured.

LNCaP [3] = assay: Stimulation of prostate cell differentiation (PSA), LNCaP; format: cell-based, human; settings: 10^−11 M to 10^−7 M, 6-7 days
Protocol: Using the techniques of Skowronski et al., 132 Endocrinology (1993) 1952-1960 and 136 Endocrinology (1995) 20-26, both of which are incorporated herein by reference, cells of the cell line, LNCaP, which is derived from a human metastatic prostate adenocarcinoma and known to express PSA, are seeded in six-well tissue culture plates at a density of about 50,000 cells/plate. After the cells have attached and stabilized, about 2-3 days, the medium is replenished with medium containing vehicle or the active vitamin D analogue, 1α,24-(OH)2D2, at concentrations from 10^−11 M to 10^−7 M. After 6-7 days, the medium is removed and stored at −20° C. for prostate specific antigen (PSA) analysis.
The cells from parallel cultures are rinsed, precipitated, and the amount of DNA determined by standard procedures. PSA is measured by standard known methods.

SMILES: C=C1/C(=C\C=C2/CCC[C@]3(C)[C@@H]([C@H](C)/C=C/[C@](C)(O)C(C)C)CC[C@@H]23)C[C@@H](O)C[C@@H]1O [1α,24(R)—(OH)2D2, 1α,24(R)-dihydroxy-vitamin D2]
- Total GH Production* (vitamin D receptor (VDR); Molar Concentration 1 × 10^−7): 1300 ng/mL
- Total GH Production* (vitamin D receptor (VDR); Molar Concentration 1 × 10^−8): 1100 ng/mL
- Total GH Production* (vitamin D receptor (VDR); Molar Concentration 1 × 10^−9): 80 ng/mL

SMILES: C=C1/C(=C\C=C2/CCC[C@]3(C)[C@@H]([C@H](C)/C=C/[C@@](C)(O)C(C)C)CC[C@@H]23)C[C@@H](O)C[C@@H]1O [1α,24(S)—(OH)2D2, 1α,24(S)-dihydroxyvitamin D2]
- Total GH Production* (vitamin D receptor (VDR); Molar Concentration 5 × 10^−8): 1182 ng/mL
- Total GH Production* (vitamin D receptor (VDR); Molar Concentration 5 × 10^−9): 1350 ng/mL
- Total GH Production* (vitamin D receptor (VDR); Molar Concentration 5 × 10^−10): 425 ng/mL

SMILES: C=C1/C(=C\C=C2/CCC[C@]3(C)[C@@H]([C@H](C)/C=C/C(C)(O)C(C)C)CC[C@@H]23)C[C@H](O)C[C@H]1O (stereo partly drawn) [1α,24-(OH)2D2, 1α,24-dihydroxyvitamin D2]
- cell number versus control cultures (PC-3): significantly fewer cells than the control cultures
- MTD relative to level achievable with 1α,25-(OH)2D3 [1]: 10- to 40 fold
- maximal tolerated dosage (MTD) [1]: above 20.0 μg/day
- cell number versus control cultures (LNCaP [2]): significantly fewer cells than the control cultures
- affinity for prostate VDR (prostate VDR): strong affinity
- PSA versus control cultures, mass of PSA/cell (LNCaP [3]): significantly more PSA than control cultures

SMILES: C=C1CC[C@H](O)C/C1=C/C=C1\CCC[C@]2(C)[C@@H]([C@H](C)CCCC(C)(C)O)CC[C@@H]12 [25-OH-D3, reference compound]
- Total GH Production* (vitamin D receptor (VDR); Molar Concentration 1 × 10^−5): 775 ng/mL
- Total GH Production* (vitamin D receptor (VDR); Molar Concentration 1 × 10^−6): 1100 ng/mL
- Total GH Production* (vitamin D receptor (VDR); Molar Concentration 1 × 10^−7): 245 ng/mL
